Experimental data as given in ChEMBL document CHEMBL5537182, “Small Molecule Benzothiophene with In Vivo Efficacy in a Mouse Model of Drug-Resistant Enterococcus faecium Infection” (J Med Chem, 2024).
In brackets after ≈: the same amount, converted by molar mass. Activity calls are given as the source filed them. The rule behind the calls is not given here.

Experiments:
Enterococcus faecium [1] = assay: Anti-bacterial activity against drug-resistant Enterococcus faecium NCTC 7171 assessed as invisible pellets in media measured after overnight incubation; format: functional
[2] = Cytotoxicity against African green monkey Vero cells assessed as cell viability incubated for 48 hrs by MTT assay; format: toxicity, cell-based; conditions: chlorocebus sabaeus
Enterococcus faecium [3] = assay: Anti-bacterial activity against vancomycin-resistant Enterococcus faecium EN 2966 assessed as invisible pellets in media measured after overnight incubation; format: functional
Enterococcus faecium [4] = assay: In vivo anti-bacterial activity against vancomycin-resistant Enterococcus faecium EN 2966 infected immunocompetent mouse model of acute peritonitis-sepsis assessed as protection at 100 mg/kg, sc measured upto 3 days; format: functional, organism-based; conditions: time <= 3.0 day
[5] = Metabolic stability in mouse liver microsomes assessed as half life by LC-MS/MS analysis; format: ADME, Microsome
[6] = Kinetic solubility of the compound in aqueous buffer at pH 7.4 measured after 4 hrs by LC-MS/MS analysis; format: physicochemical; conditions: read-out: Kinetic_solubility
[7] = AUC (0 to 5 hrs) in CD-1 mouse at 25 mg/kg, po by LC-MS/MS analysis; format: ADME, organism-based; conditions: in vivo; for AUC(0-t): CD-1, mouse
Staphylococcus aureus = assay: Anti-bacterial activity against Staphylococcus aureus ATCC 43300 assessed as invisible pellets in media measured after overnight incubation; format: functional
Klebsiella pneumoniae = assay: Anti-bacterial activity against Klebsiella pneumonia BAA 2146 assessed as invisible pellets in media measured after overnight incubation; format: functional
Acinetobacter baumannii = assay: Anti-bacterial activity against Acinetobacter baumannii ATCC 19606 assessed as invisible pellets in media measured after overnight incubation; format: functional
Pseudomonas aeruginosa = assay: Anti-bacterial activity against Pseudomonas aeruginosa HER 1018 assessed as invisible pellets in media measured after overnight incubation; format: functional
[8] = Metabolic stability in human liver microsomes assessed as half life by LC-MS/MS analysis; format: ADME, Microsome
[9] = Plasma stability in human plasma assessed as remaining at 5 uM measured after 5 hrs by LC-MS/MS analysis; format: ADME, cell-free
[10] = Plasma stability in mouse plasma assessed as remaining at 5 uM measured after 5 hrs by LC-MS/MS analysis; format: ADME, cell-free
[11] = Plasma protein binding in human at 5 uM measured after 5 hrs by LC-MS/MS analysis; format: ADME, cell-free; conditions: read-out: PPB (converted)
[12] = Plasma protein binding in mouse at 5 uM measured after 5 hrs by LC-MS/MS analysis; format: ADME, cell-free; conditions: read-out: PPB
Cytochrome P450 1A2 = biological target: T1, Cytochrome P450 1A2 (Homo sapiens, UniProt P05177); assay: Inhibition of CYP1A2 in human liver microsomes using phenacetin as substrate; format: ADME, Microsome
T1 sequence (P05177 whole entry): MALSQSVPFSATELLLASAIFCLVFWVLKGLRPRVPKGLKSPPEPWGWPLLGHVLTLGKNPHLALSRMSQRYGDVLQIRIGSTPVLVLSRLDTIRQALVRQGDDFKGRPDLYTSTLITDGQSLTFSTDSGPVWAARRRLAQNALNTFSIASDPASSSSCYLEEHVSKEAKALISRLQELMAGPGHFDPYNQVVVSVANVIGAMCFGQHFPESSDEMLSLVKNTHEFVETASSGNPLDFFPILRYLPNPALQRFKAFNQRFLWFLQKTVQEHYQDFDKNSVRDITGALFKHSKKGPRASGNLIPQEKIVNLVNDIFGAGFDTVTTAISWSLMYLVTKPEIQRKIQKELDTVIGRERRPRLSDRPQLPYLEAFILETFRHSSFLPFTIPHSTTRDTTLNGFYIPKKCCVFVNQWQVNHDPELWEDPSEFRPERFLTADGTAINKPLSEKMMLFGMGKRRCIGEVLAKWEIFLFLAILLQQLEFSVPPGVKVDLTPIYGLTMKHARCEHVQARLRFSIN

Cytochrome P450 2C9 = Cytochrome P450 2C9 (Homo sapiens, UniProt P11712); assay: Inhibition of CYP2C9 in human liver microsomes using diclofenac as substrate; format: ADME, Microsome
Cytochrome P450 2C19 = Cytochrome P450 2C19 (Homo sapiens, UniProt P33261); assay: Inhibition of CYP2C19 in human liver microsomes using omeprazole as substrate; format: ADME, Microsome
Cytochrome P450 2D6 = Cytochrome P450 2D6 (Homo sapiens, UniProt P10635); assay: Inhibition of CYP2D6 in human liver microsomes using dextromethorphan as substrate; format: ADME, Microsome
Cytochrome P450 3A4 = Cytochrome P450 3A4 (Homo sapiens, UniProt P08684); assay: Inhibition of CYP3A4 in human liver microsomes using midazolam as substrate; format: ADME, Microsome
[13] = Oral bioavailability in CD-1 mouse at 25 mg/kg by LC-MS/MS analysis; format: ADME, organism-based; conditions: in vivo
[14] = Toxicity in CD-1 mouse assessed as tolerability at 300 mg/kg, po; format: organism-based; conditions: in vivo
Enterococcus faecium [15] = assay: In vivo anti-bacterial activity against vancomycin-resistant Enterococcus faecium EN 2966 infected immunocompetent mouse model of acute peritonitis-sepsis assessed as protection at 150 mg/kg, po measured upto 3 days; format: functional, organism-based; conditions: time <= 3.0 day
Enterococcus faecium [16] = assay: Release of NO in drug-resistant Enterococcus faecium NCTC 7171 assessed as NO generation at 100 uM measured upto 2 hrs by Griess assay; format: functional, organism-based
Enterococcus faecium [17] = assay: Bactericidal activity against drug-resistant Enterococcus faecium NCTC 7171 assessed as invisible pellets in media measured after 2 days incubation; format: functional; conditions: NCTC 7171, 48 h, time 2 day

Chain of Cytochrome P450 3A4 (P08684 whole entry): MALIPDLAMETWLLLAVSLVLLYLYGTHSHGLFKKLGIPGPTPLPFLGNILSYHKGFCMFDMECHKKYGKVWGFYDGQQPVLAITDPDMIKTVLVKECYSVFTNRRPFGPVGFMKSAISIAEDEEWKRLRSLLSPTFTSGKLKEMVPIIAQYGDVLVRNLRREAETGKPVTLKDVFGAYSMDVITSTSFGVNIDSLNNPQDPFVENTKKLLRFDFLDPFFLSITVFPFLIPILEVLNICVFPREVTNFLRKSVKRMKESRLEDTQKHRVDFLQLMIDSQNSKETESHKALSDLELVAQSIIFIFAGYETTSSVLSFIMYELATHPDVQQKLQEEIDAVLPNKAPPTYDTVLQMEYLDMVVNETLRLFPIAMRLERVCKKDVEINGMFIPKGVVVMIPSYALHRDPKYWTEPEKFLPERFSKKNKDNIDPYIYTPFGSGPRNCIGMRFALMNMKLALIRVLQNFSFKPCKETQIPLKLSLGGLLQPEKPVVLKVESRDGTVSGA
Chain of Cytochrome P450 2C9 (P11712 whole entry): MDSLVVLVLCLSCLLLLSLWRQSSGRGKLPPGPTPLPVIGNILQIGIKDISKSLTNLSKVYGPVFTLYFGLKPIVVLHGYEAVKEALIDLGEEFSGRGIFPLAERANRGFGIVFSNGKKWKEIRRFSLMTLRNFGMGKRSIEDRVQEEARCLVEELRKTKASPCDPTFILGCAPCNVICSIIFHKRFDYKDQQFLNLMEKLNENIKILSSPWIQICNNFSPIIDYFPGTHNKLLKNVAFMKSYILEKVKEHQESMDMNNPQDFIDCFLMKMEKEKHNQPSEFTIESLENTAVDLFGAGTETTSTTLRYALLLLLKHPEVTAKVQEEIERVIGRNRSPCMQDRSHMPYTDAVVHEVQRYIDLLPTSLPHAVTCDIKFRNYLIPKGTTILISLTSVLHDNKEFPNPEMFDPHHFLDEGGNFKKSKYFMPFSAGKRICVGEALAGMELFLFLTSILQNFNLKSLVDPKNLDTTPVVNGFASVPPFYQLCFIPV
Chain of Cytochrome P450 2C19 (P33261 whole entry): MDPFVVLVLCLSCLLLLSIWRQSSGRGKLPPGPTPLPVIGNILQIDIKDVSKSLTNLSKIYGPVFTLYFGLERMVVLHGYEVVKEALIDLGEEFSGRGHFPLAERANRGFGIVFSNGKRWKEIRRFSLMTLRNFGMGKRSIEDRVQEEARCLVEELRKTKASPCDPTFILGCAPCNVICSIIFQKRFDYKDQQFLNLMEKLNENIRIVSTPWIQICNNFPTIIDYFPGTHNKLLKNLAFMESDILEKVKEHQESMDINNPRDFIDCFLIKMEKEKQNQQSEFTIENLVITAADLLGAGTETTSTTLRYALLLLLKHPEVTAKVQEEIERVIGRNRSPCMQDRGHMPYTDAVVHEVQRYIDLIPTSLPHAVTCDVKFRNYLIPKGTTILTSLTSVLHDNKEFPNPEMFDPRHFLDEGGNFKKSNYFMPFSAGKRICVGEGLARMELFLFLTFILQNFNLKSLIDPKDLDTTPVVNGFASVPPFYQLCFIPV
Chain of Cytochrome P450 2D6 (P10635 whole entry): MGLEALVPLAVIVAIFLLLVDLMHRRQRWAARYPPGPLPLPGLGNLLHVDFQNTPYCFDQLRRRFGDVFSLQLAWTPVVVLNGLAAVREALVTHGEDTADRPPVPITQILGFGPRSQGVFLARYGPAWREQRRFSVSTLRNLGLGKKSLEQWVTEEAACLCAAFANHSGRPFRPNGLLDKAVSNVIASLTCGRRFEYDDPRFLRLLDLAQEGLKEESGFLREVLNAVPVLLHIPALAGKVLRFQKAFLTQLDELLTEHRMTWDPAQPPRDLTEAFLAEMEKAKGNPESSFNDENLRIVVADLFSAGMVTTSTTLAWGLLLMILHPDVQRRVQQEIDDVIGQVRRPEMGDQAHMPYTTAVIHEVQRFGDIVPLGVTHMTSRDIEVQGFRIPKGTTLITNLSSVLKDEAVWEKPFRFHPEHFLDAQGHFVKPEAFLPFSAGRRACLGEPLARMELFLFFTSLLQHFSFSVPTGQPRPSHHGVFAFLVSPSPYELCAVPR

Compound	MIC (Enterococcus faecium [1])	CC50 [2]	also measured
O=C(NNC(=O)c1cc2cccc(Cl)c2s1)c1ccc([N+](=O)[O-])o1	4.2 µM (≈ 1.54 µg/mL)	68 µM	
CCCCCCCCCC(=O)N[C@@H](Cc1c[nH]c2ccccc12)C(=O)N[C@H](CC(N)=O)C(=O)N[C@@H](CC(=O)O)C(=O)N[C@@H]1C(=O)NCC(=O)N[C@@H](CCCN)C(=O)N[C@@H](CC(=O)O)C(=O)N[C@H](C)C(=O)N[C@@H](CC(=O)O)C(=O)NCC(=O)N[C@H](CO)C(=O)N[C@@H]([C@H](C)CC(=O)O)C(=O)N[C@@H](CC(=O)c2ccccc2N)C(=O)O[C@@H]1C	10 µM (≈ 16.2 µg/mL)		
O=C(NCCNC(=O)c1cc2ccccc2s1)c1ccc([N+](=O)[O-])o1	> 140 µM	139 µM	
O=C(NNC(=O)c1cc2c(Cl)cccc2s1)c1ccc([N+](=O)[O-])o1	34 µM (≈ 12.4 µg/mL)	136 µM	
O=[N+]([O-])c1ccc(-c2nnc(-c3cc4ccccc4s3)o2)o1	> 160 µM	160 µM	
CN[C@H](CC(C)C)C(=O)N[C@H]1C(=O)N[C@@H](CC(N)=O)C(=O)N[C@H]2C(=O)N[C@H]3C(=O)N[C@H](C(=O)N[C@H](C(=O)O)c4cc(O)cc(O)c4-c4cc3ccc4O)[C@H](O)c3ccc(c(Cl)c3)Oc3cc2cc(c3O[C@@H]2O[C@H](CO)[C@@H](O)[C@H](O)[C@H]2O[C@H]2C[C@](C)(N)[C@H](O)[C@H](C)O2)Oc2ccc(cc2Cl)[C@H]1O [VANCOMYCIN]	1.1 µM (≈ 1.59 µg/mL)		MIC (Enterococcus faecium [3]): ≥ 30 µM; Activity (Enterococcus faecium [4]): Active
O=C(NNC(=O)c1sc2cc(Cl)ccc2c1Cl)c1ccc([N+](=O)[O-])s1	> 120 µM	> 120 µM	
O=C(NNC(=O)c1sc2cc(C(F)(F)F)ccc2c1Cl)c1ccc([N+](=O)[O-])o1	3.6 µM (≈ 1.56 µg/mL)	110 µM	
O=C(N/N=C/c1cc2ccccc2s1)c1ccc([N+](=O)[O-])o1	> 158 µM	39 µM	
O=C(NNC(=O)c1sc2c(Cl)cccc2c1Cl)c1ccc([N+](=O)[O-])o1	62 µM (≈ 24.8 µg/mL)	> 120 µM	
O=C(NNC(=O)c1nc2ccccc2s1)c1ccc([N+](=O)[O-])o1	30 µM (≈ 9.97 µg/mL)	150 µM	
CC(C)(NC(=O)c1ccc([N+](=O)[O-])o1)c1cc2ccccc2s1	> 150 µM	38 µM	
O=C(NNC(=O)c1sc2ccc(Cl)cc2c1Cl)c1ccc([N+](=O)[O-])o1	> 124 µM	> 124 µM	
O=C(NNC(=O)c1cc2cccnc2s1)c1ccc([N+](=O)[O-])o1	> 100 µM	150 µM	
O=C(NNC(=O)c1sc2ccccc2c1Cl)c1ccc([N+](=O)[O-])o1	17 µM (≈ 6.22 µg/mL)	68 µM	
CC(=O)NC[C@H]1CN(c2ccc(N3CCOCC3)c(F)c2)C(=O)O1 [LINEZOLID]	4.6 µM (≈ 1.55 µg/mL)		MIC (Enterococcus faecium [3]): 4.7 µM (≈ 1.59 µg/mL)
O=C(NNC(=O)c1sc2cccc(Cl)c2c1Cl)c1ccc([N+](=O)[O-])o1	7.8 µM (≈ 3.12 µg/mL)	> 124 µM	

Compound	MIC (Enterococcus faecium [1])	CC50 [2]	also measured
O=C(c1ccc([N+](=O)[O-])o1)N1CCN(C(=O)c2cc3ccccc3s2)CC1	> 130 µM	16 µM	
O=C(NNC(=O)c1sc2cc(Cl)ccc2c1Cl)c1ccc(Cl)s1	> 123 µM	123 µM	
O=C(NNC(=O)c1cc2cc(Cl)cc(Cl)c2s1)c1ccc([N+](=O)[O-])o1	0.75 µM (≈ 0.3 µg/mL)	124 µM	t1/2 [5]: 13.3 min; solubility kinetic at 4 h [6]: 0.55 µM (≈ 0.22 µg/mL); AUC(0-t) [7]: 111 µg·h/mL
O=C(NNC(=O)c1sc2cc(F)ccc2c1Cl)c1ccc([N+](=O)[O-])o1	> 130 µM	> 130 µM	
O=C(NNC(=O)c1ccc([N+](=O)[O-])o1)c1cc2ccccc2[nH]1	> 100 µM	> 160 µM	
O=C(NNC(=O)c1cc2cc(Cl)ccc2s1)c1ccc([N+](=O)[O-])o1	> 137 µM	> 137 µM	
O=C(NNC(=O)c1cc2ccccc2o1)c1ccc([N+](=O)[O-])o1	> 100 µM	39 µM	
O=C(NNC(=O)c1csc2ccccc12)c1ccc([N+](=O)[O-])o1	15 µM (≈ 4.97 µg/mL)	75 µM	
C[C@@H](O)[C@H]1C(=O)N2C(C(=O)O)=C(S[C@@H]3CN[C@H](C(=O)N(C)C)C3)[C@H](C)[C@H]12 [MEROPENEM]	19 µM (≈ 7.29 µg/mL)		
O=C(NNC(=O)c1cc2c(Cl)cc(Cl)cc2s1)c1ccc([N+](=O)[O-])o1	62 µM (≈ 24.8 µg/mL)	> 124 µM	
O=C(NNC(=O)c1sc2cc(Cl)ccc2c1Cl)c1ccc(Cl)o1	> 128 µM	128 µM	
O=C(NNC(=O)c1cc2ccc(Cl)cc2s1)c1ccc([N+](=O)[O-])o1	> 136 µM	> 136 µM	
O=C(NNC(=O)c1cc2ccccc2s1)c1ccc([N+](=O)[O-])o1	> 174 µM		MIC (Staphylococcus aureus): > 150 µM; MIC (Klebsiella pneumoniae): > 150 µM; MIC (Acinetobacter baumannii): > 150 µM; MIC (Pseudomonas aeruginosa): > 150 µM; t1/2 [5]: 3.3 min; solubility kinetic at 4 h [6]: 103 µM (≈ 34.1 µg/mL); AUC(0-t) [7]: 1.28 µg·h/mL
O=C(NNC(=O)c1sc2cc(Cl)ccc2c1Cl)c1ccc([N+](=O)[O-])o1	1.9 µM (≈ 0.76 µg/mL)	> 120 µM	t1/2 [5]: 16.6 min; solubility kinetic at 4 h [6]: 0.35 µM (≈ 0.14 µg/mL); AUC ([7]; mouse, po, 25 mg/kg): 75.175 µg·h/mL; t1/2 [8]: 85.6 min; Stability [9]: 76.6%; Stability [10]: 89.2%; fraction unbound at 5 h, 5 µM [11]: 0.007; fraction unbound at 5 h, 5 µM [12]: 0.0001; IC50 (Cytochrome P450 1A2): > 50 µM; IC50 (Cytochrome P450 2C9): > 50 µM; IC50 (Cytochrome P450 2C19): > 50 µM; IC50 (Cytochrome P450 2D6): > 50 µM; IC50 (Cytochrome P450 3A4): > 50 µM; F [13]: 47%; Activity [14]: Non-Toxic; MIC (Enterococcus faecium [3]): 1.9 µM (≈ 0.76 µg/mL); Activity (Enterococcus faecium [15]): Active; Activity (Enterococcus faecium [16]): inactive
O=C(NNC(=O)c1cc2cc(C(F)(F)F)cc(Cl)c2s1)c1ccc([N+](=O)[O-])o1	1.8 µM (≈ 0.781 µg/mL)	> 110 µM	MIC (Staphylococcus aureus): 16 µM (≈ 6.94 µg/mL); MIC (Klebsiella pneumoniae): > 120 µM; MIC (Acinetobacter baumannii): > 120 µM; MIC (Pseudomonas aeruginosa): > 120 µM; t1/2 [5]: 57.8 min; solubility kinetic at 4 h [6]: 0.06 µM (≈ 0.026 µg/mL); AUC(0-t) [7]: 43.8 µg·h/mL; MBC (Enterococcus faecium [17]): 7.7 µM (≈ 3.34 µg/mL)
NC[C@H]1O[C@H](O[C@H]2[C@H](O)[C@@H](O[C@H]3O[C@H](CO)[C@@H](O)[C@H](N)[C@H]3O)[C@H](N)C[C@@H]2N)[C@H](O)[C@@H](O)[C@@H]1O [KANAMYCIN]	> 24 µM		
O=C(NNC(=O)c1cc2c(s1)CCCC2)c1ccc([N+](=O)[O-])o1	37 µM (≈ 12.4 µg/mL)	37 µM	
